Patent US6492124B1, “Trance activated signal transduction pathways in osteoclasts” (The Rockefeller University, priority 1999, dated 2002)

Test system: JNK
Test: JNK activation measured by its phosphorylation in osteoclasts and dendritic cells
Assay type: cell-based, mouse
Conditions: TRANCE, data not shown
Description: Cell stimulation, cell transfection and in vitro assays. In vitro differentiated mature dendritic cells, macrophages and osteoclasts were washed to remove exogenous growth factors, cultured in media with low serum (0.5% FCS, 6 hours), then stimulated by adding various cytokines in the presence or absence of inhibitors for various times as indicated. After stimulation, the cells were washed in ice-cold PBS, and subjected to Western blot analysis or immunoprecipitation as described below.
For Western blotting, whole-cell extracts (20 μg of total protein), immunoprecipitates or kinase reactions were resolved on SDS-PAGE, electro-blotted to PVDF membranes (Immobilon-P, Millipore) according to standard methods (Maniatis, et al., Molecular Cloning: A Laboratory Manual (Cold Spring Harbor Laboratory, New York) 1989), probed with antibodies according to the manufacturer's protocol, and visualized using an immunodetection system. Stripping was performed by incubating the blots in stripping buffer (62.5 mM Tris pH 6.8, 2% SDS, 100 mM β-mercaptoethanol) for 30 min at 55° C.

For “TNF-related activation-induced cytokine [TRANCE]”, the “JNK activation as measured by its phosphorylation” value was “not detected”.
